In ChEMBL document CHEMBL1136913, “Stereoselective synthesis and biological evaluations of novel 3'-deoxy-4'-azaribonucleosides as inhibitors of hepatitis C virus RNA replication” (J Med Chem, 2009):

Tests used:
Hepatitis C virus = assay: Antiviral activity against HCV infected in human HBI10A cells assessed as inhibition of viral-NS3 expression by ELISA; assay type: functional, organism-based, Hepacivirus hominis
[1] = Cytotoxicity against human HBI10A cells after 20 hrs by MTS assay; assay type: cell-based
[2] = Selectivity index, ratio of CC50 for human HBI10A cells to IC50 for HCV; assay type: functional

IC50 (Hepatitis C virus) [µM] | SMILES | CC50 at 20 h [1] [µM] | Ratio CC50/IC50 [2]
0.00035 | CC(C)(C)OC(=O)N1[C@H](CO)C[C@@H](O)[C@@H]1n1cc(F)c(=O)[nH]c1=O | 623 | –
40.6 | CC(C)(C)OC(=O)N1[C@H](CO)C[C@@H](O)[C@@H]1n1ccc(=O)[nH]c1=O | > 1000 | –
0.018 | Cc1cn([C@H]2[C@H](O)C[C@@H](CO)N2C(=O)OC(C)(C)C)c(=O)[nH]c1=O | > 1000 | –

The remaining lines, values behind:

SMILES | IC50 (Hepatitis C virus) [µM] | CC50 at 20 h [1] [µM] | Ratio CC50/IC50 [2]
CCOC(=O)N1[C@H](CO)C[C@@H](O)[C@@H]1n1cc(F)c(=O)[nH]c1=O | 4.8 | > 1000 | >=208
CCOC(=O)N1[C@H](CO)C[C@@H](O)[C@H]1n1cc(F)c(=O)[nH]c1=O | > 1000 | 200 | –
CC(C)(C)OC(=O)N1[C@H](CO)C[C@@H](O)[C@@H]1n1ccc(N)nc1=O | 96 | > 1000 | –
